Results taken from US12414960B2, “Analogues of oleuropein and oleacein and uses thereof” (Attica Sciences Ltd., priority 2020, dated 2025).

What was measured:
HepG2 liver cancer cells = assay: XTT cell growth assay, HepG2; type: cell-based, human; conditions: Homo sapiens, HepG2, 24 h, NS = not statistically significant, read-out: Effectiveness to suppress HepG2 cell growth (cell growth inhibition)
Description: (§1) The XTT assay is used to measure cellular metabolic activity as an indicator of cell viability, proliferation and cytotoxicity. This non-radioactive, colorimetric assay system was first described by Scudiero, et al. in 1988 (Paull, Kenneth D. et al., J Heterocycl Chem, 1988, 25: 911-914; Scudiero, Dominic A. et al., Cancer Res, 1988, 48: 4827-4833) and improved in subsequent years by several other investigators (Weislow, Owen S. et al., J Natl Cancer Inst, 1989, 81(8): 577-586; Roehm, N. W. et al., J Immunol Methods, 1991, 142: 257-265).
(§2) The XTT assay is based on the reduction of a yellow tetrazolium salt (sodium 3′-[1-(phenylaminocarbonyl)-3,4-tetrazolium]-bis (4-methoxy6-nitro) benzene sulfonic acid hydrate or XTT) to an orange formazan dye by metabolically active cells (FIG. 8). The formazan dye formed is soluble in aqueous solutions and is directly quantified using a scanning multiwell spectrophotometer (ELISA reader). An increase in number of living cells results in an increase in the overall activity of mitochondrial dehydrogenases in the sample. This increase directly correlates to the amount of orange formazan formed, as monitored by the absorbance. Reduced number of living cells leads to reduced metabolism of quaternary salt and therefore reduced absorption.
(§3) Cell viability was assessed using the XTT assay kit (Roche, Mannheim, Germany) as described previously (Kouka, Paraskevi et al., Oxid Med Cell Longev. 2019, Article ID 1870965). Briefly, cancer cells per well were cultured in a 96-well plate in Dulbecco's modified Eagle's medium (DMEM). Following a 24 h incubation, 5, 10 and 50 μM of the tested GS compound was diluted in a serum-free DMEM and administered for 24 h. Subsequently, 50 μL of the XTT reagent (50:1) was added to each well. After 4 h of incubation, the absorbance was monitored at 450 nm and also at 630 nm as a reference wavelength in a BioTek ELx800 microplate reader (BioTek Instruments Inc., Winooski, VT, USA). As a negative control, samples containing serum-free DMEM only were used.
Hep G2 (or HepG2) is a human liver cancer cell line. Hep G2 is an immortal cell line which was derived from the liver tissue of an adolescent with a well-differentiated hepatocellular carcinoma. Hep G2 cells are a suitable in vitro model system for the study of polarized human hepatocytes.
(§4) The effects of exemplary compounds on cancer cell lines and one non-tumorigenic cell line (control) were investigated using a high throughput screening assay. More specifically, the effects of the GS compounds on cell growth was evaluated by the XTT assay for cell lines HepG2, HeLa, MCF7 ER+, MDA-MB-231, and MKN-45, and by the Cell Glo luminescence assay for cell lines MIA PaCa-2, HCT-116, MCF-10A, and PANC-1.

[1] = tested on: MKN-45 gastric cancer cells; assay: XTT cell growth assay, MKN-45; type: cell-based, human; conditions: Homo sapiens, MKN-45, 24 h, NS = not statistically significant, read-out: Effectiveness to suppress MKN-45 cell growth (cell growth inhibition)
Description: as §1, §2, §3
MKN-45 is a human gastric adenocarcinoma, established from the poorly differentiated adenocarcinoma of the stomach (medullary type) of a person.
as §4

[2] = tested on: MCF-7 ER+ breast cancer cells; assay: XTT cell growth assay, MCF-7 ER+; type: cell-based, human; conditions: Homo sapiens, MCF7, 24 h, NS = not statistically significant, read-out: Effectiveness to suppress MCF7 cell growth (cell growth inhibition)
Description: as §1, §2, §3
MCF-7 ER+ is a human breast cancer cell line isolated in 1970 from a person. Prior to MCF-7, it was not possible for cancer researchers to obtain a mammary cell line that was capable of living longer than a few months.
as §4

[3] = ABTS radical cation scavenging assay; type: biochemical; conditions: NS = not statistically significant
Description: The method of estimating antioxidant capacity, based on the ability to interact with the ABTS.+ radical cation was first performed by Miller et al. in 1993 (Miller, Nicholas et al., Clinical Science, 1993, 84: 407-412, “A novel method for measuring the antioxidant capacity and its application to monitoring the antioxidant status in premature neonates”). The mechanism of interaction of the antioxidant agents to be examined with the ABTS.+ radical is similar to that of the DPPH. radical, which can be inactivated either by the addition of an electron or by the addition of a hydrogen atom. However, unlike the DPPH. radical, which is a stable radical from the beginning, the ABTS.+ radical must be produced by the oxidation of ABTS. Thus, in order to estimate the antioxidant capacity of a substance, the formation of the ABTS.+ radical must first precede and the addition of the substance to be examined must follow. The addition of the antioxidant agent is performed after the production of the root ABTS.+ to avoid the interaction of the antioxidant agents with the oxidizing agents used for the oxidation of ABTS.
The oxidation of ABTS takes place either through chemical reactions with various reagents or through the action of enzymes such as peroxidases. The ABTS.+ radical from the moment it is formed is stable, has a green color and absorbs at 730 nm. When a substance with antioxidant activity is added to the solution, then the ABTS.+ radical is reduced by the addition of a hydrogen (or electron) atom, resulting in reduced visual absorption.
To assess the antioxidant capacity of the samples, the oxidation of ABTS was performed enzymatically through the action of horseradish peroxidase (HRP), in the presence of H2O2 (FIG. 3)
The anti-oxidant capacity of the GS compounds was evaluated by performing the ABTS assay as previously described (Kouka, Paraskevi et al., Oxid Med Cell Longev. 2019, Article ID 1870965). Briefly, in a total reaction volume of 1 mL in distilled water (dH2O), ABTS.^+ (1 mM), H2O2 (30 μM), and horseradish peroxidase (HRP) (6 μM) in 50 mM phosphate-buffered saline were added. The solution was incubated for 45 min at room temperature (RT) in the dark. Finally, 10 μL of the tested GS compound at various concentrations was added, and the absorbance was monitored on a Hitachi U-1900 radio beam spectrophotometer (serial no. 2023-029; Hitachi Ltd.) at 730 nm. In each experiment, a blank without the HRP was used, while the ABTS.^+ radical solution without the extract was used as the control. The RSC percentage of the tested extracts was calculated using the following equation: RSC (%)=[(ODcontrol−ODcompound)/ODcontrol]×100, where ODcontrol and OD sample are the optical density (OD) values of the control and the test sample, respectively.

[4] = tested on: HeLa cervical cancer cells; assay: XTT cell growth assay, HeLa; type: cell-based, human; conditions: Homo sapiens, HeLa, 24 h, NS = not statistically significant, read-out: Effectiveness to suppress HeLa cell growth (cell growth inhibition)
Description: as §1, §2, §3
HeLa is a human immortal cell line used in scientific research. It is the oldest and most commonly used human cell line. The line was derived from cervical cancer cells taken on Feb. 8, 1951 from Henrietta Lacks, a patient who died of cancer on Oct. 4, 1951.
as §4

[5] = tested on: MDA-MB-231 triple negative breast cancer cells; assay: XTT cell growth assay, MDA-MB-231; type: cell-based, human; conditions: Homo sapiens, MDA-MB-231, 24 h, NS = not statistically significant, read-out: Effectiveness to suppress MDA-MB-231 cell growth (cell growth inhibition)
Description: as §1, §2, §3
MDA-MB-231 is a human epithelial breast cancer cell line that was established from a pleural effusion of a person with a metastatic mammary adenocarcinomal and is one of the most commonly used breast cancer cell lines in medical research laboratories.
as §4

[6] = Deoxyribose degradation assay (hydroxyl radical scavenging); type: biochemical; conditions: NS = not statistically significant
Experimental: The hydroxyl radical (OH.) is an extremely reactive in biological systems and has been implicated as highly damaging species in free radical pathology, capable of damaging biomolecules of the living cells. These radical combines with nucleotides in DNA and cause strand breakage leading to carcinogenesis, mutagenesis and cytotoxicity. Hydroxyl radical (OH.) scavenging capacity of an extract is directly related to its antioxidant activity.
The effect of extracts on hydroxyl radicals was assayed by using the deoxyribose method. 2-Deoxyribose is degraded on exposure to hydroxyl radicals generated by Fenton's reaction. The ability to neutralize the OH. is estimated as the rate of inhibition of the oxidation of 2-deoxyribose by the OH. (FIG. 5).
The measurement of the hydroxyl radical scavenging activity was evaluated for each of the GS compound by evaluating the pink chromogen absorption at 532 nm by spectrophotometry as described previously (Perjesi, Pal et al., Open Med Chem J., 2011, 5: 61-67

[7] = tested on: HCT-116 colon cancer cells; assay: Cell Glo luminescence cell growth assay, HCT-116; type: cell-based, human; conditions: Homo sapiens, HCT-116, 24 h, NS = not statistically significant, read-out: Effectiveness to suppress HCT-116 cell growth (cell growth inhibition)
Description: The CellTiter-Glo® Luminescent Cell Viability Assay (Promega Corporation; Madison, WI) is a homogeneous method of determining the number of viable cells in culture based on quantitation of the ATP present, an indicator of metabolically active cells. The homogeneous assay procedure involves adding the single reagent (CellTiter-Glo® Reagent) directly to cells cultured in serum-supplemented medium. The homogeneous “add-mix-measure” format results in cell lysis and generation of a luminescent signal proportional to the amount of ATP present. The amount of ATP is directly proportional to the number of cells present in culture.
Cancer cells (3,000 cells/well) were harvested in a 96-well plate. Then, the cancer cells were treated with GS compounds and incubated for 24 hours. The MT Cell Viability Substrate, NanoLuc® Enzyme and cell culture medium was equilibrated to 37° C. The 2× RealTime-Glo™ reagent was prepared by diluting the MT Cell Viability Substrate and NanoLuc® Enzyme in 37° C. cell culture medium to a 2× concentration for each reagent. For example, 1 mL of 2× RealTime-Glo™ reagent was prepared by adding 2 μL of MT Cell Viability Substrate, 1,000×, and 2 μL of NanoLuc® Enzyme, 1,000×, to 996 μL of cell culture medium to form the 2× RealTime-Glo™ reagent. Then, an equal volume of 2× RealTime-Glo™ reagent was added to the cancer cells. The cells were kept for ˜20 minutes in the cell culture incubator and then luminescence was measured by using a plate-reading luminometer.
HCT-116 is a human colorectal cancer cell lines that has a mutation in RAS proto-oncogene.
as §4

pACLY (S455) = assay: ELISA of pACLY (S455) / ACLY enzymatic activity in PANC-1 cells; type: cell-based, human; conditions: 5 μM
Experimental: ELISA assay was used to evaluate the effect of GS compounds on protein activity levels in PANC-1 cancer cells. PANC-1 cells were serum-starved overnight and then treated with rIGF1 (100 ng/mL) for 24 hours, with or without GS27 (5 μM). The levels of the following proteins were evaluated by ELISA assay: a) p70 S6 (T389) (cat no. 54164C, Cell Signaling); b) pAKT (S473), (cat no. 80895, Cell Signaling); c) pACLY (S455), (cat no. okag1672, Avivasysbio); d) pAMPK (T172) (cat no. 7959C, Cell Signaling) and e) p65/NFKB (S536), (cat no. 7173, Cell Signaling).
PANC-1 is a human pancreatic ductal adenocarcinoma cell line derived from the carcinoma of a person.
The molecular mechanism of action of GS27, a compound that has exerted potent anti-cancer activity in different cancer cell lines including pancreatic cancer cells, was investigated. Oleacein has been implicated to have anti-inflammatory and metabolic effects, thus the potential effects of GS27 in different metabolic and inflammatory pathways were evaluated. Specifically, the protein levels of p70 S6 (T389), pAKT (S473), pACLY (S455), pAMPK (T172) and p65/NFKB (S536) were evaluated by ELISA assay in PANC-1 pancreatic cancer cells treated with 5 μM GS27. GS27 reduced p70 S6 and AKT phosphorylation levels, while it increased AMPK phosphorylation.
The effects of different GS compounds on ACLY enzymatic activity were evaluated by ELISA assay in PANC-1 pancreatic cancer cells. […] This finding is unexpected, since GS21 has a very similar structure with GS27, with the only difference being the presence of an oxygen atom in ester GS21 instead of a sulfur atom in thioester GS27.

SMILES | inhibition at 50 µM (HepG2 liver cancer cells) [%] | inhibition at 50 µM [1] [%] | inhibition at 50 µM [2] [%] | ABTS Radical Cation Scavenging Assay IC50 [3] [μg extract/mL] | inhibition at 50 µM [4] [%] | inhibition at 50 µM [5] [%] | Deoxyribose Degradation Assay IC50 [6] [μg extract/mL] | inhibition at 1 µM [7] [%] | ACLY enzymatic activity (ELISA) (pACLY (S455))
C/C=C(/C=O)[C@@H](CC=O)CC(=O)OCCc1cccc(O)c1 [GS20, (3S,4E)-4-formyl-3-(2-oxoethyl)-4-hexenoic acid 3-hydroxyphenethyl ester] | 50 | 84.1 | 36.1 | 50.2 | 56.4 | 56.4 | 20 |  | 
C/C=C1/[C@H](OC2OC(CO)C(O)C(O)C2O)OC=C(C(=O)O)[C@H]1CC(=O)OCCc1cccc(O)c1 (stereo in doubt) [GS14, (2S,4S,E)-3-ethylidene-4-(2-(3-hydroxyphenethoxy)-2-oxoethyl)-2-{[(2R,3S,4R,5R,6S)-3,4,5-trihydroxy-6-(hydroxymethyl)tetrahydro-2H-pyran-2-yl]oxy}-3,4-dihydro-2H-pyran-5-carboxylic acid] | 10 |  | 28.4 | 66 | 29.5 | 38.2 |  | 26.4 | 
C/C=C(/C=O)[C@@H](CC=O)CC(=O)OCCc1ccccc1 [GS21, (35,4E)-4-formyl-3-(2-oxoethyl)-4-hexenoic acid 2-phenylethyl ester] |  | 49.4 | 66 |  | 75.8 | 52.5 | 14.4 | 21.5 | small effect
